Tested on: amyloid-beta in CD31-positive vessels
Experiment: Assessment of CAA in APP23 mice by CD31/NT12 double fluorescence immunohistochemistry and image analysis
Type: in vivo, mouse
Description: Amyloid plaques were stained using a rabbit anti-Aβ primary antibody (NT12) which recognizes the C-terminal part of the amyloid peptide (the antibody was raised as described in Schrader-Fischer G and Paganetti P A, 1996, and Schrader-Fischer G et al., 1997). The vascular endothelial cells were detected using a rat anti-CD31 antibody (reference DIA310) from Dianova GmbH (Hamburg, Germany). All stainings were performed using the fully automated instrument Ventana Discovery® Ultra (Roche Diagnostics Schweiz AG, Rotkreuz, Switzerland). All chemicals were provided by Roche Diagnostic.
All study animals were used and brain tissue sections of 3 micrometers were freshly cut and collected on SuperFrost+ slides. The tissues sections were de-paraffinized and rehydrated under solvent-free conditions (EZprep solution) followed by antigen retrieval (demasking) performed by heat retrieval cycles for 32 min in a EDTA based buffer (CC1 solution). Subsequently, slides were blocked for 4 min using the DISCOVERY Inhibitor (reference 07017944001 (Roche)). The primary antibody diluted at 1/10′000 in antibody diluent was manually added on tissue sections and incubated for 1 h at room temperature. A short post-fixation (glutaraldehyde at 0.05%) was performed before applying the multimer UltraMap-anti Rabbit HRP ready to use antibody (reference 05269717001) for 16 min.
Detection was performed using the DISCOVERY FITC® following the manufacturer's recommendations. Slides were then heat denaturated at 92° C. for 20 min before a manual application of the second primary antibody (rat anti-CD31 diluted at 1/1′000 in antibody diluent) and incubated for 1 h. Multimer UltraMap-anti-Rat HRP antibody (reference 05891884001) was used for 20 min to detect CD31 in combination with the DISCOVERY Rhodamine kit (reference 07259883001).
The slides were washed and mounted using Prolong® Gold antifade reagent (reference P36931, ThermoFisher, Switzerland) and further scanned with the Hamamatsu slide scanner instrument (NanoZoomer 2.0 HT, scanning software NDP-Scan Vers. 2.5, Hamamatsu Photonics France, Swiss Office, Solothurn, Switzerland) at the 40× objective. The scanning settings were as follows: the exposure time with the DAPI filter was set at 28.5 ms as well as for the FITC filter and TRITC filter (detection of Rhodamine).
For the quantitative plaque and vessel-associated amyloid-beta evaluation based on image analysis, a proprietary image analysis platform (ASTORIA, Automated Stored Image Analysis) was developed based on MS Visual Studio 2010 and many functions from Matrox MIL V9 libraries (Matrox Inc, Quebec, Canada).
For the beta-amyloid plaque and vessel analysis, the following sequence of steps was performed: • Slides were scanned with Hamamatsu Nanozoomer at 40× magnification. […]

[1] = 0.3 g/kg food, 6 months, all CD31+ vessels
[2] = 0.3 g/kg food, 6 months, large CD31-positive vessels
[3] = 0.3 g/kg vs vehicle, all CD31+ vessels
[4] = 0.3 g/kg vs vehicle, large vessels
[5] = 0.3 g/kg vs vehicle, small + medium vessels

C[C@@]1(c2nc(NC(=O)c3ncc(C(F)(F)F)cc3Cl)ccc2F)CO[C@@](C)(C(F)(F)F)C(N)=N1 [Compound 1, N-(6-((3R,6R)-5-amino-3,6-dimethyl-6-(trifluoromethyl)-3,6-dihydro-2H-1,4-oxazin-3-yl)-5-fluoropyridin-2-yl)-3-chloro-5-(trifluoromethyl)picolinamide]
% of large vessels with 0% Aβ (0.3 g/kg food, 6 months): 10.3 ± 1.56%
% of large vessels with 1-10% Aβ (0.3 g/kg food, 6 months): 21.6 ± 2.31%
% of large vessels with 10-25% Aβ (0.3 g/kg food, 6 months): 9.48 ± 1.85%
% of large vessels with 25-50% Aβ (0.3 g/kg food, 6 months): 20.6 ± 3.66%
% of large vessels with 50-75% Aβ (0.3 g/kg food, 6 months): 28.8 ± 3.3%
% of large vessels with >10% Aβ (0.3 g/kg food, 6 months): 68.1 ± 3.03%
% of large vessels with >75% Aβ (0.3 g/kg food, 6 months): 9.27 ± 2.77%
% of small + medium vessels with 0% Aβ (0.3 g/kg food, 6 months): 80.2 ± 1.61%
% of small + medium vessels with 1-10% Aβ (0.3 g/kg food, 6 months): 10.8 ± 1.12%
% of small + medium vessels with 10-25% Aβ (0.3 g/kg food, 6 months): 2.75 ± 0.20%
% of small + medium vessels with 25-50% Aβ (0.3 g/kg food, 6 months): 2.38 ± 0.25%
% of small + medium vessels with 50-75% Aβ (0.3 g/kg food, 6 months): 1.73 ± 0.21%
% of small + medium vessels with >10% Aβ (0.3 g/kg food, 6 months): 8.95 ± 0.8%
% of small + medium vessels with >75% Aβ (0.3 g/kg food, 6 months): 2.07 ± 0.33%
CAA Frequency (number small + medium vessels with >10% Aβ normalized to sample area, *10^7) (0.3 g/kg food, 6 months): 56 ± 6.1
Number of large CD31+ vessels (normalized to total CD31 positive vessel numbers in %) (0.3 g/kg food, 6 months): 1.49 ± 0.12%
Number of small + medium CD31+ vessels (normalized to total CD31 positive small + medium vessel numbers in %) (0.3 g/kg food, 6 months): 98.5 ± 0.12%
Number small + medium vessels with >10% Aβ, mean ± SEM (0.3 g/kg food, 6 months): 195 ± 21.9
Total number CD31+ vessels (normalized to total sample area, *10^5), mean ± SEM (0.3 g/kg food, 6 months): 6.46 ± 0.37
Total vessel-associated NT12 area (normalized to total small + medium CD31+ vessel area) (0.3 g/kg food, 6 months): 0.194 ± 0.0201
% of vessels with 0% Aβ [1]: 79.2 ± 1.63%
% of vessels with 1-10% Aβ [1]: 11 ± 1.1%
% of vessels with 10-25% Aβ [1]: 2.87 ± 0.21%
% of vessels with 25-50% Aβ [1]: 2.65 ± 0.25%
% of vessels with 50-75% Aβ [1]: 2.12 ± 0.24%
% of vessels with >10% Aβ [1]: 9.82 ± 0.85%
% of vessels with >75% Aβ [1]: 2.19 ± 0.36%
CAA Frequency (number vessels with >10% Aβ normalized to sample area, *10^7) [1]: 70 ± 7.6
Number vessels with >10% Aβ, mean ± SEM [1]: 217 ± 23.6
Total vessel-associated NT12 area (normalized to total CD31+ area) [1]: 0.47 ± 0.04
CAA Frequency (number vessels with >10% Aβ normalized to sample area, *10^7) [2]: 6.5 ± 0.6
Number vessels with >10% Aβ, mean ± SEM [2]: 22 ± 2.2
Total vessel-associated NT12 area (normalized to total CD31+ area) [2]: 0.77 ± 0.04
% of large vessels with 0% Aβ, treatment effect vs vehicle (0.3 g/kg vs vehicle): −8%
% of large vessels with 1-10% Aβ, treatment effect vs vehicle (0.3 g/kg vs vehicle): +48%
% of large vessels with 10-25% Aβ, treatment effect vs vehicle (0.3 g/kg vs vehicle): +35%
% of large vessels with 25-50% Aβ, treatment effect vs vehicle (0.3 g/kg vs vehicle): +7%
% of large vessels with 50-75% Aβ, treatment effect vs vehicle (0.3 g/kg vs vehicle): −12%
% of large vessels with >10% Aβ, treatment effect vs vehicle (0.3 g/kg vs vehicle): −8%
% of large vessels with >75% Aβ, treatment effect vs vehicle (0.3 g/kg vs vehicle): −36%
% of small + medium vessels with 0% Aβ, treatment effect vs vehicle (0.3 g/kg vs vehicle): +9%
% of small + medium vessels with 1-10% Aβ, treatment effect vs vehicle (0.3 g/kg vs vehicle): −15%
% of small + medium vessels with 10-25% Aβ, treatment effect vs vehicle (0.3 g/kg vs vehicle): −35%
% of small + medium vessels with 25-50% Aβ, treatment effect vs vehicle (0.3 g/kg vs vehicle): −39%
% of small + medium vessels with 50-75% Aβ, treatment effect vs vehicle (0.3 g/kg vs vehicle): −35%
% of small + medium vessels with >10% Aβ, treatment effect vs vehicle (0.3 g/kg vs vehicle): −36%
% of small + medium vessels with >75% Aβ, treatment effect vs vehicle (0.3 g/kg vs vehicle): −34%
Total small + medium vessel-associated NT12 area (normalized to total CD31+ small + medium vessel area), treatment effect vs vehicle (0.3 g/kg vs vehicle): −28% p < 0.05
% of vessels with 0% Aβ, treatment effect vs vehicle [3]: +9%
% of vessels with 1-10% Aβ, treatment effect vs vehicle [3]: −13%
% of vessels with 10-25% Aβ, treatment effect vs vehicle [3]: −32%
% of vessels with 25-50% Aβ, treatment effect vs vehicle [3]: 36%
% of vessels with 50-75% Aβ, treatment effect vs vehicle [3]: −33%
% of vessels with >10% Aβ, treatment effect vs vehicle [3]: −34%
% of vessels with >75% Aβ, treatment effect vs vehicle [3]: −34%
CAA Frequency, treatment effect vs vehicle [3]: −29% p < 0.05
Number vessels with >10% Aβ, treatment effect vs vehicle [3]: −39% p < 0.001
Total vessel-associated NT12 area (normalized to total CD31+ area), treatment effect vs vehicle [3]: −19% n.s.
CAA Frequency, treatment effect vs vehicle [4]: −17% n.s.
Number vessels with >10% Aβ, treatment effect vs vehicle [4]: −21% n.s.
Total vessel-associated NT12 area (normalized to total CD31+ area), treatment effect vs vehicle [4]: −4% n.s.
CAA Frequency, treatment effect vs vehicle [5]: −37% p < 0.005
Number vessels with >10% Aβ, treatment effect vs vehicle [5]: −40% p < 0.001

From US10722518B2, “Oxazine derivative for use in the treatment or prevention of cerebral amyloid angiopathy” (Novartis AG, priority 2016, dated 2020)
